Assay results published in article PMC10933344, “A lncRNA Dleu2-encoded peptide relieves autoimmunity by facilitating Smad3-mediated Treg induction” (EMBO Reports, 2024).

System: naive CD4+ T cells
Experiment: In vitro iTreg differentiation (Foxp3+ of CD4+ cells)
Assay type: cell-based, mouse
Conditions: 20 μM, 72 h
Procedure: C57BL/6 mice were sacrificed, and their spleens and peripheral lymph nodes were removed and gently dissociated into single-cell suspensions. Naive T cells were isolated using the Mouse CD4 Naive T Cell Isolation Kit (BioLegend, Stem Cell, or Thermo Fisher Scientific). Flow cytometry verified that the purity (CD4^+CD25^−CD62L^hi) of the enriched subpopulation was typically higher than 95%. All T cells were cultured using RPMI-1640 medium (Gibco) supplemented with 10% heat-inactivated fetal bovine serum (Gibco), 2 mM L-glutamine (Gibco), 10,000 units/mL of penicillin, 10,000 µg/mL of streptomycin, and 25 µg/mL of Gibco Amphotericin B (Thermo Fisher Scientific), 10 mM HEPES (Gibco), 1 mM Sodium pyruvate, MEM Non-Essential Amino Acids (Life Technologies) and 55 μM β-mercaptoethanol (Gibco). 0.1 million naive CD4^+ T cells were activated with plate-coated anti-CD3 (2.5 μg/ml; BD Biosciences) and soluble anti-CD28 (2 μg/ml; BD Biosciences) antibodies. The Th1 cell differentiation condition included recombinant murine (rm)IL-12 (10 ng/ml, PeproTech) and anti-IL-4 (10 μg/ml, BioLegend). The Th17 cell differentiation condition included rmIL-6 (10 ng/ml, PeproTech), rmTGF-β1 (5 ng/ml, PeproTech), rmIL-23 (10 ng/ml, PeproTech), anti-IL-4 (5 μg/ml, BioLegend) and anti-IFN-γ (10 μg/ml, eBioscience). The inducible T regulatory cell (iTreg) differentiation condition included rmTGF-β (5 ng/ml, PeproTech). 0.1 million naive CD8^+ T cells were activated with plate-coated anti-CD3 (10 μg/ml; BD Biosciences) and plate-coated anti-CD28 (10 μg/ml; BD Biosciences) antibodies. The Tc17 cell differentiation condition included rmIL-6 (10 ng/ml, PeproTech), rmTGF-β1 (2 ng/ml, PeproTech), rmIL-23 (25 ng/ml, PeproTech), rmIL1-β (5 ng/ml, PeproTech), and anti-IFN-γ (10 μg/ml, eBioscience). The Tc1 cell differentiation condition included rmIL-2 (5 ng/ml, PeproTech) and rm IL-12 (1 ng/ml, PeproTech). Different concentrations of Dleu2-17aa and scrPEP (Genscript) were added to the T cell culture from the beginning unless specified. Cells were cultured in U-bottom 96-well plates for 72 h and detected by flow cytometry.
For in vitro mouse T cell differentiation, after 72 h of induction, cells were activated for 4–6 h at 37 °C with the Cell Stimulation Cocktail (Thermo Fisher Scientific) if intracellular cytokine staining is needed, surface markers were stained in FACS buffer (PBS containing 2% FBS) for 30 min at 4 °C protected from light. Cells were then fixed and permeabilized with the Foxp3 Staining Buffer Set (eBioscience) or BD Cytofix/Cytoperm (BD Biosciences) and were stained with fluorescent antibodies. After washing, stained cells were assayed with an LSRFortessa (BD) flow cytometer, and data were analyzed with FlowJo software. Single-cell suspensions from EAE mouse spleen or CNS (day 16 post-immunization) were derived through mechanical separation and passage through a 70-μm filter (Fisherbrand) and analyzed using similar steps. For flow cytometry, antibodies against CD4 (clone GK1.5, 1:200), CD62L (clone MEL-14, 1:200), CD44 (clone IM7, 1:200), CD25 (clone PC61.5, 1:200), IL-17A (clone eBio17B7, 1:200), IFN-γ (clone XMG1.2, 1:200), FoxP3 (clone FJK-16s, 1:200), CD184 (clone 2B11/CXCR4, 1:100), CD152 (clone BNI3 1:100) and CD357 (clone DTA-1 1:100) were from eBioscience, CD3 (clone 145-2C11, 1:200) was from Biolegend and TGFBI (1:100) were from proteintech. For Dleu2-17aa expression detection, C57BL/6 mice were sacrificed, and their spleens were removed and gently dissociated into single-cell suspensions. An Fc blocker was used to reduce potential nonspecific antibody staining caused by IgG. Surface staining was performed using monoclonal antibodies against CD45 (clone 30-F11), CD3 (clone 145-2C11), CD19 (clone SJ25C1), CD11c (clone N418), MHCII (clone M5/114.15.2), F4/80 (clone BM8) all at a dilution of 1:200 (from Biolengend) followed by fixation and permeabilization of the nuclear membrane BD Cytofix/Cytoperm (BD Biosciences). […]

ARGPARRMRGGRRRRLR [scrPEP, scrambled control peptide of Dleu2-17aa]
Foxp3+/ CD4+ Cells (%) (replicate 1): 32.8%
Foxp3+/ CD4+ Cells (%) (replicate 2): 22.9%
Foxp3+/ CD4+ Cells (%) (replicate 3): 16.77%
Foxp3+/ CD4+ Cells (%) (replicate 4): 32.13%
Foxp3+/ CD4+ Cells (%) (replicate 5): 22.9%
Foxp3+/ CD4+ Cells (%) (replicate 6): 10.3%
Foxp3+/ CD4+ Cells (%) (replicate 7): 30.6%
